Earlier results, collected in EP0523846A2, “1,4-Benzodiazepines with 5-membered heterocyclic rings” (MERCK & CO. INC., priority 1991, dated 1993).

Conditions: background statement citing Deschodt-Lanckman et al., Reg. Pept., 2, 15 (1981)

CSCC[C@H](NC(=O)[C@H](Cc1ccc(OS(=O)(=O)O)cc1)NC(=O)[C@@H](N)CC(=O)O)C(=O)NCC(=O)N[C@@H](Cc1c[nH]c2ccccc12)C(=O)N[C@@H](CCSC)C(=O)N[C@@H](CC(=O)O)C(=O)N[C@@H](Cc1ccccc1)C(N)=O [CCK-8s, H-Asp-Tyr(SO₃H)-Met-Gly-Trp-Met-Asp-Phe-NH₂]
half-life: less than 1 hour
